Patent US8961949B2, “Polymer-metal complex composite having MRI contrast ability and MRI contrasting and/or antitumor composition using the same” (Japan Science and Technology Agency, priority 2008, dated 2015)
Entries after “also recorded” stand apart in the source; their conditions may differ.

Columns and labels:
[1] = blood at 1, 4, 8 and 24 hours after tail vein injection of 0.2 ml
Text: After collection, the blood was rapidly mixed with heparin to prevent coagulation, and then centrifuged to collect plasma only. The collected plasma was mixed with 90% HNO3, heated and dried, dissolved in 5N HCl, and then diluted appropriately, followed by ICP-MS to determine Gd and Pt contents.

[2] = test system: human pancreatic cancer cells (BxPC3); assay: in vivo MRI in orthotopic transplantation model of BxPC3; design: species or system Nude mice; conditions: equal amounts of micelles and free Gd-DTPA
Procedure: Nude mice (female, 6 weeks of age) were laparotomized under inhalation anesthesia, injected with 0.1 ml of human pancreatic cancer cells (BxPC3) under the serous membrane of the pancreas and then kept for 1 month to prepare an orthotopic transplantation model. MRI was imaged with a 4.7 Tesla Superconductive Magnet Unit (Varian, Palo Alto, Calif.) VXR-MRI Console under the following imaging conditions: repetition time (TR): 500 ms, echo time (TE): 15 ms, field of view (FOV): 32 mm×32 mm, matrix size: 256×256, slice thickness: 2 mm to obtain Spin Echo T1w images. The mice were injected under 5% isoflurane inhalation anesthesia and maintained under 1.2% isoflurane anesthesia during imaging. […] Imaging was performed every 5 minutes during the first 1 hour after injection via the tail vein, then every 15 minutes for 4 hours. Moreover, an equal amount of free Gd-DTPA serving as a control was also injected via the tail vein and imaged in the same manner. The resulting images were analyzed by Mathematica (Wolfram Research Inc.) and Excel (Microsoft, Inc.).

[3] = test system: human pancreatic cancer cells (BxPC3); assay: antitumor effect (tumor size) on subcutaneous BxPC3 tumor; assay type: in vivo, Nude mice; conditions: Pt 8 mg/ml

SMILES | residual drug content in plasma / retention in blood [1] | contrast enhancement / intensity in tumor [2] | antitumor effect (tumor size), words ([3]; 0.2 ml i.v. on day 0, 2 and 4) | antitumor effect (tumor size), words ([3]; 0.2 ml i.v. on day 0, 2 and 4, listed as Oxaliplatin)
O=C([O-])CN(CCN(CC(=O)[O-])CC(=O)O)CCN(CC(=O)[O-])CC(=O)O.[Gd+3] [Gd-DTPA, gadolinium diethylene triamine pentaacetic acid] | rapidly disappear from plasma | little contrast enhancement; also recorded: little increase in intensity |  | 
O=C1[O][Pt]2([NH][C@@H]3CCCC[C@H]3[NH]2)[O]C1=O [oxaliplatin] | rapidly disappear from plasma |  | substantially the same tendency as the control | little therapeutic effect
